Source: US10421779B2, “Carbazole compound having anti-virus activity” (priority 2016, dated 2019)

Assays:
Format in all cases: cell-based
[1] = tested on: hepatitis C virus double mutant L31V and Y93H of the NS5A region; test: Efficacy on resistant double mutant (L31V and Y93H); conditions: read-out: EC50 Double mutant
Excerpt: (§1) As a mutant resistant to hepatitis C virus, L31V and Y93H of the NS5A region, and double mutants thereof were applied.

[2] = tested on: HCV genotype 1 b (HCV replicon system); test: HCV replicon system genotype 1b, Renilla luciferase activity; conditions: Hepatitis C virus, 72 h; HCV genotype 1b replicon, Rluc, 3 days; read-out: Replicon EC50 1b type
Procedure, shortened: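 Genotype 1b replicon carrying Renilla luciferase and 1b non-structural genes, treated with compound at various concentrations. Luciferase activity read after 3 days relative to control to derive EC50.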

[3] = tested on: hepatitis C virus mutant L31V of the NS5A region; test: Efficacy on resistant mutant L31V; conditions: read-out: EC50 L31V
Excerpt: as §1

[4] = tested on: hepatitis C virus mutant Y93H of the NS5A region; test: Efficacy on resistant mutant Y93H; conditions: read-out: EC50 Y93H
Excerpt: as §1

[5] = tested on: HCV genotype 2a (HCV cell culture system, HCVcc); test: HCVcc genotype 2a JFH1 (JFH 5a-Rluc) virus in Huh7.5.1 cells, luciferase assay; conditions: Hepatitis C virus, Huh-7.5.1, 72 h, HCV genotype 2a JFH 5a-Rluc, 3 days, read-out: Replicon EC50 2a type
Method: (§2) From human liver cells (Huh7.5.1 cell) infected by hepatitis C virus, the anti-virus effects by the compound of the present invention were measured. From HCV genotype 1 b (HCV replicon system), genotype 2a (HCV cell culture system, HCVcc), and genotype 3a, the EC50 values were measured.
In order to measure the EC50 value from HCV genotype 2a, a luciferase assay was used. A JFH1 clone (JFH 5a-Rluc) virus constructed to have a Renilla luciferase enzyme (Rluc) gene in NS5A protein was infected with Huh7.5.1 cell being a host cell, and then the EC50 value was measured by taking cells grown for 3 days by treating the experimental compound under various concentration conditions, and analyzing the activity degree of the luciferase.

[6] = tested on: HCV genotype 3a (HCV replicon system); test: HCV replicon system genotype 3a, firefly luciferase activity; conditions: Hepatitis C virus, 72 h; HCV genotype 3a replicon, Fluc, 3 days; read-out: Replicon EC50 3a type
Method: as §2
In order to measure the EC50 value from genotype 3a, the value was measured through the luciferase activity. A HCV replicon system having firefly luciferase (Fluc) genes and genotype 3a non-structure genes was used. The HCV replicon system having the genes as described above was used to treat the experimental compound under various concentration conditions, and then 3 days later, the EC50 value was measured by comparing the luciferase activity with that of the control.

| SMILES | EC50 [1] [nM] | EC50 [2] [nM] | EC50 [3] [nM] | EC50 [4] [nM] | EC50 [5] [nM] | EC50 [6] [nM] |
| --- | --- | --- | --- | --- | --- | --- |
| COCCn1c2cc(NC(=O)[C@@H]3CCCN3C(=O)[C@H](NC(=O)OC)c3ccccc3)ccc2c2ccc(NC(=O)[C@@H]3CCCN3C(=O)[C@H](NC(=O)OC)c3ccccc3)cc21 [Example 21, dimethyl ((1R,1′R)-((2S,2′S)-(((9-(2-methoxyethyl)-9H-carbazole-2,7-diyl)bis(azanediyl))bis(carbonyl))bis(pyrrolidine-2,1-diyl))bis(2-oxo-1-phenylethane-2,1-diyl))dicarbamate] | > 1000 | 0.111 | 10 to 100 | 100 to 1000 |  |  |
| COC(=O)N[C@@H](C(=O)N1CCC[C@H]1C(=O)Nc1ccc2c3ccc(NC(=O)[C@@H]4CCCN4C(=O)[C@H](NC(=O)OC)c4ccccc4)cc3n(C(C)c3ccccc3)c2c1)c1ccccc1 (stereo partly drawn) [Example 15, dimethyl ((1R,1′R)-((2S,2′S)-(((9-(1-phenylethyl)-9H-carbazole-2,7-diyl)bis(azanediyl))bis(carbonyl))bis(pyrrolidine-2,1-diyl))bis(2-oxo-1-phenylethane-2,1-diyl))dicarbamate] | > 1000 | 0.0157 | < 0.1 | 10 to 100 |  |  |
| COC(=O)N[C@@H](C(=O)N1CCC[C@H]1C(=O)Nc1ccc2c3ccc(NC(=O)[C@@H]4CCCN4C(=O)[C@H](NC(=O)OC)c4ccccc4)cc3n(CC3CC3)c2c1)c1ccccc1 [Example 16, dimethyl ((1R,1′R)-((2S,2′S)-(((9-(cyclopropylmethyl)-9H-carbazole-2,7-diyl)bis(azanediyl))bis(carbonyl))bis(pyrrolidine-2,1-diyl))bis(2-oxo-1-phenylethane-2,1-diyl))dicarbamate] | > 1000 | 0.0182 | 1 to 10 | 10 to 100 |  |  |
| COC(=O)N[C@@H](C(=O)N1CCC[C@H]1C(=O)Nc1ccc2c3ccc(NC(=O)[C@@H]4CCCN4C(=O)[C@H](NC(=O)OC)c4ccccc4)cc3n(Cc3ccc(OC)cc3)c2c1)c1ccccc1 [Example 14, dimethyl ((1R,1′R)-((2S,2′S)-(((9-(4-methoxybenzyl)-9H-carbazole-2,7-diyl)bis(azanediyl))bis(carbonyl))bis(pyrrolidine-2,1-diyl))bis(2-oxo-1-phenylethane-2,1-diyl))dicarbamate] | > 1000 | 0.0203 | 0.1 to 1 | 100 to 1000 |  |  |
| COC(=O)N[C@H](C(=O)N1CCC[C@H]1c1nc(-c2ccc(-c3ccc(-c4c[nH]c([C@@H]5CCCN5C(=O)[C@@H](NC(=O)OC)C(C)C)n4)cc3)cc2)c[nH]1)C(C)C [BMS-790052, reference compound] | > 1000 |  | 0.1 to 1 | 1 to 10 |  |  |
| CCCCCCCCCC(c1ccccc1)n1c2cc(NC(=O)[C@@H]3CCCN3C(=O)[C@H](NC(=O)OC)c3ccccc3)ccc2c2ccc(NC(=O)[C@@H]3CCCN3C(=O)[C@H](NC(=O)OC)c3ccccc3)cc21 (stereo partly drawn) [Example 42, dimethyl ((1R,1′R)-((2S,2′S)-(((9-(1-phenyldecyl)-9H-carbazole-2,7-diyl)bis(azanediyl))bis(carbonyl))bis(pyrrolidine-2,1-diyl))bis(2-oxo-1-phenylethane-2,1-diyl))dicarbamate] |  | 0.00124 | 0.1 to 1 | 100 to 1000 | 10 to 100 | 0.0329 |
| COC(=O)N[C@@H](C(=O)N1CCC[C@H]1C(=O)Nc1ccc2c3ccc(NC(=O)[C@@H]4CCCN4C(=O)[C@H](NC(=O)OC)c4ccccc4)cc3n(Cc3cccc(C)n3)c2c1)c1ccccc1 [Example 20, dimethyl ((1R,1′R)-((2S,2′S)-(((9-((6-methylpyridine-2-yl)methyl)-9H-carbazole-2,7-diyl)bis(azanediyl))bis(carbonyl))bis(pyrrolidine-2,1-diyl))bis(2-oxo-1-phenylethane-2,1-diyl))dicarbamate] | > 1000 | 0.222 | 10 to 100 | > 1000 |  |  |
| COC(=O)N[C@@H](C(=O)N1CCC[C@H]1C(=O)Nc1ccc2c3ccc(NC(=O)[C@@H]4CCCN4C(=O)[C@H](NC(=O)OC)c4ccccc4)cc3n(Cc3ccncc3)c2c1)c1ccccc1 [Example 19, dimethyl ((1R,1′R)-((2S,2′S)-(((9-(pyridine-4-ylmethyl)-9H-carbazole-2,7-diyl)bis(azanediyl))bis(carbonyl))bis(pyrrolidine-2,1-diyl))bis(2-oxo-1-phenylethane-2,1-diyl))dicarbamate] | > 1000 | 0.243 | 1 to 10 | > 1000 |  |  |
| COC(=O)N[C@@H](C(=O)N1CCC[C@H]1C(=O)Nc1ccc2c3ccc(NC(=O)[C@@H]4CCCN4C(=O)[C@H](NC(=O)OC)c4ccccc4)cc3n(Cc3ccccc3)c2c1)c1ccccc1 [Example 13, dimethyl ((1R,1′R)-((2S,2′S)-(((9-benzyl-9H-carbazole-2,7-diyl)bis(azanediyl))bis(carbonyl))bis(pyrrolidine-2,1-diyl))bis(2-oxo-1-phenylethane-2,1-diyl))dicarbamate] | > 1000 | 0.0246 | 0.1 to 1 | 100 to 1000 |  |  |
